Patent publication US20080039522A1, “Composition Containing a Complex Comprising a Metal Ion and a Carboxylate Ligand Having Anti-Inflammatory Activity” (Medical Therapies Limited, priority 2004, published 2008)
Several values for one entry are separate records, joined by “and”; a condition that tells them apart may be missing. Equal entries are not always repeated.

Legend:
Sprague-Dawley rats [1] = test: Anti-inflammatory activity (rat paw oedema) after subcutaneous or intramuscular injection; type: in vivo
Description: (§1) In Vivo Anti-inflammatory Activity and Gastric Toxicity. Groups of four rats were used for all studies. All doses were calculated as equivalent concentrations of Indo. […] For subcutaneous and intramuscular administration, rats were injected with 125-200 μL volumes of the test compositions (IndoH or [Cu2(Indo)4(OH2)2] in MCT oil). The control cohort was injected with equivalent volumes of neat MCT. Subcutaneous injections were made in the lower dorsal surface and intramuscular injections were made in the right hind thigh muscle. Inflammation was induced 1 h after dosing by injection of the formulation by an injection of carrageenan (0.1 mL, 1% w/v in isotonic saline) into the plantar region of the hind paw.
(§2) Paw volume was measured prior to dosing and at 3 h after carrageenan injection by immersing the left hind paw (to the lateral malleus) into a vessel filled with water as described in Example 5. Immediately after paw volume measurements, 24 h-fasted animals were euthanised and the stomach was excised and opened by incision along the greater curvature.

Sprague-Dawley rats [2] = test: Inhibition of carrageenan-induced paw edema, oral administration; type: in vivo, rat; settings: for percent inhibition in rat hind-paw diameter change, 3-hr / percent inhibition in rat hind-paw diameter change, 5-hr: oral, IndoH 10 mg kg^−1, complex 11 mg kg^−1, mean(sem); for percent inhibition in rat hind-paw diameter change, 3-hr: 3 h post carrageenan; for percent inhibition in rat hind-paw diameter change, 5-hr: 5 h post carrageenan
Description: Inhibition of Carrageenan-Induced Paw Edema: Rats were orally administered (non-anaesthetized) the Test Samples or Test Compositions via oral gavage. The control cohort was dosed solely with CMC (2%) solution. […] Exp. Ther. 1965, 150, 165-171). The thickness of the paw was measured at the ventral dorsal footpad using digital calipers prior to dosing and at 3 and 5 h after carrageenan injection. The change in the measured parameter (ΔP) for thickness of paw (Δmm) at n=3- and 5-hours after carrageenan injection is given by: ΔP=Pt=n-Pt=0 (I) The percent inhibition (% inhibition) at 3- or 5-hours in the measured parameter (P) due to the treatment is given as the difference between the % increase in the value of P in the control group and the treatment group at n=3- or 5-hours, with the % increase in the value of P given by: […]

Sprague-Dawley rats [3] = test: Anti-inflammatory activity (rat paw oedema) of topical creams; type: in vivo; settings: topical emulsifying cream
Description: All rat experiments were performed as outlined in Example 7, except for the following changes. In Vivo Anti-inflammatory Activity and Gastric Toxicity. For topical administration, rats were treated with test compositions containing [Cu2(Indo)4(OH2)2] (“CuIndo”), [Zn(Indo)2(OH2)2] (“ZnIndo”), IndoH, or an equivalent Indo and Cu dose of a physical mixture of [Cu2(OAc)4(OH2)2] and IndoH thoroughly mixed in an emulsifying cream (see below). An amount of 0.2 g of the composition was applied to the right hind paw of each animal and gently massaged in for 1 minute at three-hourly intervals. Inflammation was induced at the final topical application with an injection of carrageenan (0.1 mL, 1% w/v in isotonic saline) into the plantar region of the hind paw. The composition for topical application was a composition comprising 0.5-2% w/w of Indo delivered as [Cu2(Indo)4(OH2)2] (“CuIndo”), [Zn(Indo)2(OH2)2] (“ZuIndo”), IndoH or an equivalent Indo and Cu dose of a physical mixture of [Cu2(OAc)4(OH2)2] and IndoH in an emulsifying cream, the emulsifying cream consisting of: […]

Sprague-Dawley rats [4] = test: Small intestinal toxicity of topical creams; settings: rat, in vivo
Description: In Vivo Small Intestinal Toxicity.
All rat experiments were performed as outlined in Example 7, except for the following changes.
In Vivo Anti-inflammatory Activity and Gastric Toxicity. For topical administration, rats were treated with test compositions containing [Cu2(Indo)4(OH2)2] (“CuIndo”), [Zn(Indo)2(OH2)2] (“ZnIndo”), IndoH, or an equivalent Indo and Cu dose of a physical mixture of [Cu2(OAc)4(OH2)2] and IndoH thoroughly mixed in an emulsifying cream (see below). An amount of 0.2 g of the composition was applied to the right hind paw of each animal and gently massaged in for 1 minute at three-hourly intervals. Inflammation was induced at the final topical application with an injection of carrageenan (0.1 mL, 1% w/v in isotonic saline) into the plantar region of the hind paw.

Sprague-Dawley rats [5] = test: Gastric toxicity after subcutaneous or intramuscular injection; settings: rat, in vivo, 4 h
Description: as §1, §2

Sprague-Dawley rats [6] = test: Small intestine ulceration after oral administration; type: in vivo, rat; settings: rats fed, oral gavage, 24 h after dosing, IndoH 10 mg kg^−1, complexes 11 mg kg^−1, mean ± sem
Description: The rats were orally administered (non-anaesthetized) the Test Samples or Test Compositions via oral gavage. The controls were dosed with CMC (2%) solution.
(§3) The total volume of the MCT or carbopol paste compositions administered per dose in the assessment of gastrointestinal ulceration was no more than 0.5 g.

Sprague-Dawley rats [7] = test: Observation of the site of the subcutaneous injection; type: in vivo, rat; settings: rat, in vivo, sc
Description: as §1

Sprague-Dawley rats [8] = test: Acute gastric ulceration after oral administration; type: in vivo, rat; settings: for gastric ulceration: 10 mg kg^−1 dose of Indo
Description: Gastrointestinal Ulceration: To assess gastric damage, rats (n=4 per group) were fasted overnight with free access to water prior to the oral administration (non-anaesthetized) of the Test Samples or Test Compositions via oral gavage. The controls were dosed with CMC (2%) solution. Three hours after dosing, the rats were euthanised and the stomach was excised and opened by incision along the greater curvature. The stomach was rinsed, submerged in 10% formaldehyde for 1 h and examined to determine the extent of macroscopic gastric damage.
as §3
In order to illustrate the adverse effects of decomposition of the copper complex in the formulation, the gastric toxicity of IndoH, Cu-acetate, a physical mixture of Cu-acetate and IndoH and [Cu2(Indo)4(DMF)2] were tested at equivalent doses of Indo (10 mg kg^−1) and/or Cu in the MCT paste or a 2% (w/v) aqueous solution of carboxymethylcellulose (CMC). The MCT paste formulations were prepared as described in Example 3 but using IndoH, Cu-acetate, a physical mixture of Cu-acetate and IndoH, or [Cu2(Indo)4(DMF)2] instead of [Cu2(Indo)4(OH2)2]. The gastric toxicity was tested as described above. The results of these experiments are illustrated in FIG. 3.
In further experiments designed to test the toxicity of solutions of the Cu complex, the [Cu2(Indo)4(DMF)2] complex was dissolved in DMF and gastric toxicities were assessed. […] Similar results would be expected using other complexes, including [Cu2(Indo)4(OH2)2], in a non-colloidal solution.

COc1ccc2c(c1)c(CC(=O)O)c(C)n2C(=O)c1ccc(Cl)cc1 [IndoH, 1-(4-chlorobenzoyl)-5-methoxy-2-methyl-1H-indole-3-acetic acid]
Percent inhibition (Sprague-Dawley rats [1]; intramuscular, fasting rats, 5 mg/kg equivalent dose of Indo): 38.7%
Percent inhibition (Sprague-Dawley rats [1]; intramuscular, fasting rats, 10 mg/kg equivalent dose of Indo): 49.4%
Percent inhibition (Sprague-Dawley rats [1]; subcutaneous, 7.5 mg/kg of Indo, non-fasting): 34%
ED50 (Sprague-Dawley rats [2]; delivered in CMC): 2.8 ± 1.7 mg/kg
ED50 (Sprague-Dawley rats [2]; delivered in MCT paste): 1 mg/kg
percent inhibition in rat hind-paw diameter change, 3-hr (Sprague-Dawley rats [2]): 21(8) %
percent inhibition in rat hind-paw diameter change, 3-hr (Sprague-Dawley rats [2]; listed as Indomethacin): 21(8)%
percent inhibition in rat hind-paw diameter change, 5-hr (Sprague-Dawley rats [2]): 25(6) %
percent inhibition in rat hind-paw diameter change, 5-hr (Sprague-Dawley rats [2]; listed as Indomethacin): 25(6)%
Efficacy (% inhib) (Sprague-Dawley rats [3]; conc. 0.5 % equiv of Indo): 18.6 % inhib
Efficacy (% inhib) (Sprague-Dawley rats [3]; conc. 0.75 % equiv of Indo): 60.8 % inhib
Efficacy (% inhib) (Sprague-Dawley rats [3]; conc. 1 % equiv of Indo): 35 % inhib
Efficacy (% inhib) (Sprague-Dawley rats [3]; conc. 2 % equiv of Indo): 42 % inhib
intestinal bleeding (Sprague-Dawley rats [4]): ^bOvert intestinal bleeding.
Gastric ulcers (mm^2) (Sprague-Dawley rats [5]; 5 mg/kg): 1, 0, 1, 2 mm^2
Gastric ulcers (mm^2) (Sprague-Dawley rats [5]; 10 mg/kg): 12, 3, 8, 20 mm^2
Small intestine ulceration (mm^2) (Sprague-Dawley rats [6]; listed as Sample I): 177.0±4.4 mm^2
adverse effect at the site of the injection (Sprague-Dawley rats [7]): None of the rats exhibited soreness, swelling, redness or any other adverse effect

COc1ccc2c(c1)c(CC(=O)[O-])c(C)n2C(=O)c1ccc(Cl)cc1.COc1ccc2c(c1)c(CC(=O)[O-])c(C)n2C(=O)c1ccc(Cl)cc1.O.O.[Zn+2] [ZnIndo, [Zn(Indo)2(OH2)2]]
Efficacy (% inhib) (Sprague-Dawley rats [3]; conc. 0.5 % equiv of Indo): 29 % inhib
Efficacy (% inhib) (Sprague-Dawley rats [3]; conc. 1 % equiv of Indo): 41 % inhib

CN(C)C=O.CN(C)C=O.COc1ccc2c(c1)c(CC(=O)[O-])c(C)n2C(=O)c1ccc(Cl)cc1.COc1ccc2c(c1)c(CC(=O)[O-])c(C)n2C(=O)c1ccc(Cl)cc1.COc1ccc2c(c1)c(CC(=O)[O-])c(C)n2C(=O)c1ccc(Cl)cc1.COc1ccc2c(c1)c(CC(=O)[O-])c(C)n2C(=O)c1ccc(Cl)cc1.[Cu+2].[Cu+2] [[Cu2(Indo)4(DMF)2], bis(N,N-dimethylformamide)tetrakis-μ-(O,O′-Indo)dicopper(II)]
Small intestine ulceration (mm^2) (Sprague-Dawley rats [6]; listed as Sample M): 8.7±2.9 mm^2
gastric ulceration (Sprague-Dawley rats [8]; complex dissolved in DMF alone): > 200 mm^2
gastric ulceration (Sprague-Dawley rats [8]; complex in DMF containing 2% CMC): 100 mm^2
gastric damage in 0.5 mL MCT paste compared with 0.5 mL of 2% (w/v) CMC solution (Sprague-Dawley rats [8]; oral, equivalent doses of Indo (10 mg kg^−1) and/or Cu, FIG. 3): less GI toxicity for the MCT formulation compared to the CMC formulation
gastric ulcerations compared to the control (Sprague-Dawley rats [8]; oral, equivalent doses of Indo (10 mg kg^−1) and/or Cu, [Cu2(Indo)4(DMF)2] in MCT paste, Cu-acetate in CMC solution or MCT paste, FIG. 3): no significant gastric ulcerations
Gastric ulceration (mm^2) (Sprague-Dawley rats [8]; rats fasted overnight, oral gavage, 3 h after dosing, IndoH 10 mg kg^−1, complexes 11 mg kg^−1, mean ± sem, listed as Sample M): 49±7 mm^2 and 49.0±6.7 mm^2
